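Test compounds were applied to cells in 96-well plates for 48 hours at 5 doses. TGI: concentration producing complete growth inhibition.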
Legend:
Assay in all cases: NCI tumour cell line growth inhibition, 48 h
786-0 renal = test system: 786-0 renal
EKVX NSCLC = test system: EKVX NSCLC
HCT-116 colon = test system: HCT-116 colon
HOP-62 NSCLC = test system: HOP-62 NSCLC
IGROV1 ovarian = test system: IGROV1 ovarian
KM12 colon = test system: KM12 colon
LOX IMVI melanoma = test system: LOX IMVI melanoma
MDA-N = test system: MDA-N
OVCAR-3 ovarian = test system: OVCAR-3 ovarian
OVCAR-4 ovarian = test system: OVCAR-4 ovarian
OVCAR-8 ovarian = test system: OVCAR-8 ovarian
SF-268 CNS = test system: SF-268 CNS
SF-295 CNS = test system: SF-295 CNS
SF-539 CNS = test system: SF-539 CNS
SNB-19 CNS = test system: SNB-19 CNS
SNB-75 CNS = test system: SNB-75 CNS
T-47D breast = test system: T-47D breast
TK-10 renal = test system: TK-10 renal
UO-31 renal = test system: UO-31 renal
M14 melanoma = test system: M14 melanoma

| Structure (SMILES) | TGI (786-0 renal) [µM] | TGI (EKVX NSCLC) [µM] | TGI (HCT-116 colon) [µM] | TGI (HOP-62 NSCLC) [µM] | TGI (IGROV1 ovarian) [µM] | TGI (KM12 colon) [µM] | TGI (LOX IMVI melanoma) [µM] | TGI (MDA-N) [µM] | TGI (OVCAR-3 ovarian) [µM] | TGI (OVCAR-4 ovarian) [µM] | TGI (OVCAR-8 ovarian) [µM] | TGI (SF-268 CNS) [µM] | TGI (SF-295 CNS) [µM] | TGI (SF-539 CNS) [µM] | TGI (SNB-19 CNS) [µM] | TGI (SNB-75 CNS) [µM] | TGI (T-47D breast) [µM] | TGI (TK-10 renal) [µM] | TGI (UO-31 renal) [µM] | TGI (M14 melanoma) [µM] |
| --- | --- | --- | --- | --- | --- | --- | --- | --- | --- | --- | --- | --- | --- | --- | --- | --- | --- | --- | --- | --- |
| NC(=O)c1c(NC=O)ncn1C1OCC(O)C(O)C1O (configuration not stated) | > 100 | > 100 | > 100 | > 100 | > 100 | > 100 | > 100 | > 100 | > 100 | > 100 | > 100 | > 100 | > 100 | > 100 | > 100 | > 100 | > 100 | > 100 | > 100 |  |
| CO[C@@H]1C[C@H](OC(N)=O)[C@@H]2C=C[C@@H]3/C=C(C)/C=C/[C@@H](C)[C@H](/C(C)=C/[C@@H](C)NC(C)=O)OC(=O)/C=C/C=C(C)\C=C\[C@]3(C)[C@@H]2C1 | 2.74 | 0.843 | 0.107 | 0.429 | 0.471 | 0.163 | 0.00689 | 2.12 | 0.251 | 11.4 | 50 | 1.4 | 0.111 | 0.0846 | 10.2 | 0.0826 | 2.98 |  | 0.111 | 0.912 |
| CC/C=C/C[C@H](O)[C@H]1C[C@H]2O[C@H](CC(=O)OC)C[C@H]2O1 | > 100 | > 100 | > 100 | > 100 | > 100 | > 100 | > 100 | > 100 | > 100 | > 100 | > 100 | > 100 | > 100 |  | > 100 | > 100 | > 100 |  | > 100 | > 100 |
| COc1ccccc1NCc1cccc2c(=O)c3ccc(Cl)cc3oc12 | > 100 | > 100 | > 100 | > 100 | > 100 | > 100 | > 100 | > 100 | > 100 | > 100 | > 100 |  | > 100 | > 100 | > 100 | > 100 | > 100 | > 100 | > 100 | > 100 |
| CN(C(=O)Cc1cc(Cl)c(Cl)cc1NC(=O)CN)[C@H]1CCCC[C@@H]1N1CCCC1 | 38 | > 100 | > 100 | > 100 | > 100 | > 100 | 41.6 | 31.7 | > 100 | > 100 | > 100 | > 100 | 77.1 |  | > 100 | 55.9 | 98.4 | > 100 | > 100 | 33.5 |
| COc1cccc2cc(C(C)=O)c(=O)oc12 | > 100 | > 100 | > 100 | > 100 | > 100 | > 100 | > 100 | > 100 | > 100 | > 100 | > 100 | > 100 | > 100 | > 100 |  | > 100 | > 100 | > 100 | > 100 | > 100 |
| CCN(CC)c1ccc2cc(C(=O)Nc3ccc(C)cc3)c(=N)oc2c1 | > 100 | > 100 | > 100 | > 100 | > 100 | > 100 | > 100 | > 100 | > 100 | > 100 | > 100 | > 100 |  |  | > 100 | > 100 | > 100 |  |  | > 100 |
| CCOC(=O)C(C)c1nc2ccc(C(F)(F)F)cc2[nH]c1=O (configuration not stated) | > 100 | > 100 | > 100 | > 100 |  | > 100 | > 100 | > 100 | > 100 | > 100 | > 100 | > 100 | > 100 | > 100 | > 100 | > 100 | 69.9 | > 100 | > 100 | > 100 |
| O=S(=O)(O)c1ccc2c(N=Nc3ccc(Cl)cc3)c(O)ccc2c1 | > 100 | > 100 | > 100 | > 100 | > 100 | > 100 | > 100 | > 100 | > 100 | > 100 | > 100 | > 100 | > 100 |  | > 100 | > 100 | > 100 | > 100 | > 100 | > 100 |
| COc1ccc(N2C(=O)C3c4[nH]c5ccc(F)cc5c4C4CCC(C(C)(C)C)CC4C3C2=O)cc1 (configuration not stated) |  | > 10 | > 10 | > 10 | > 10 | > 10 |  | > 10 | > 10 | > 10 | > 10 | > 10 | > 10 | > 10 | > 10 | 4.87 | > 10 | > 10 | > 10 | > 10 |
| C(=Nc1ccc(-c2nc3ccccc3[nH]2)cc1)c1ccco1 | > 100 | > 100 | > 100 | > 100 | > 100 | > 100 | > 100 | > 100 | > 100 | > 100 | > 100 | > 100 |  | > 100 |  | > 100 | > 100 | > 100 | > 100 | > 100 |
| CCOC(=O)c1cc(C2CCN(c3ccccc3)C2=O)c(C(=O)/C=C(/C)N)[nH]1 (configuration not stated) | 21.8 | > 100 | 27.9 | 46 | > 100 | > 100 | > 100 | > 100 | > 100 | > 100 | > 100 | > 100 | 46.7 |  | 52.4 | 28.2 | > 100 | > 100 | > 100 | > 100 |
